Like-named read-outs stand apart in the source and are kept apart here.
Tests used:
[1] = Canine site of absorption study, IntelliCap, SEQ ID NO:3 solution formulations (Example 10); type: in vivo, Beagle dogs; conditions: for bioavailability: Beagle, plasma; for bioavailability / AUC(0-t) / Cmax / Tmax: dog, pH 8, canine; for F: canine; for AUC(0-t) / Cmax / Tmax: in vivo
Source text: The IntelliCap® system, an electronic oral drug delivery and monitoring device, was used to determine regional absorption for solution formulations. In the form of a capsule, the IntelliCap® incorporates a microprocessor, battery, pH sensor, temperature sensor, radio frequency (RF) wireless transceiver, fluid pump, and drug reservoir. The IntelliCap® system can determine the drug's position in the gastrointestinal (GI) tract by a pH monitoring sensor in the capsule, thereby eliminating the need for in vivo imaging. This system was employed to assess the site of absorption of GLP-1 peptide analogs in the GI tract following oral delivery to canines (Beagle dogs). Solution formulations without permeation enhancer excipients were used as intravenous (IV) and subcutaneous (SC) controls in the study. In brief, solution formulations were prepared and transferred to the IntelliCap® capsule which was dosed to canines, wherein the formulation was released at a specific site in the GI tract.

[2] = First rat intraduodenal study, sodium caprate as permeation enhancer (Example 4); type: in vivo; conditions: for AUC / Cmax / Tmax / half-life: in vivo; for bioavailability: plasma
Description: Solution formulations comprising GLP-1 peptide analogs were injected into rats in the duodenum segment of the small intestine. The first ID study involved the use of sodium caprate as the permeation enhancer and the SEQ ID NO:3 GLP-1 peptide analog. Absolute bioavailability (% F) is a percentage-expressed measure of systemic drug exposure after oral, or in the current example intraduodenal, administration to the systemic exposure generated with intravenous (IV) administration of drug solution. Absolute bioavailability, (% F), is calculated as a percentage of systemic, or blood, drug concentration area under curve (AUC) of the AUC of IV administration adjusted to the amounts of drug given via these routes of administration.

[3] = po, 0.74 mg/kg, PO IntelliCap capsule-proximal small bowel, 8 mg/mL peptide, 10 mg/mL Na CDC, 2 mg/mL Sodium Caprate, PBS pH 8.0
[4] = po, 0.74 mg/kg, PO IntelliCap proximal colon, 8 mg/mL peptide, 10 mg/mL Na CDC, 2 mg/mL Sodium Caprate, PBS pH 8.0
[5] = po, 0.74 mg/kg, PO gavage, 8 mg/mL peptide, 10 mg/mL Na CDC, 2 mg/mL Sodium Caprate, PBS pH 8.0
[6] = iv, 0.01 mg/kg, 0.1 mg/mL peptide in PBS pH 8.0
[7] = sc, 0.01 mg/kg, 0.1 mg/mL peptide in PBS pH 8.0
[8] = Intraduodenal, 1 mg/kg peptide, 0 mg/kg sodium caprate, 0.5 mg/mL in PBS pH 8.0
[9] = 50 mg/kg, pH 8.5, rat, Intraduodenal, 50 mg/kg peptide + 50 mg/kg sodium caprate, PBS pH 8.5
[10] = iv, 0.01 mg/kg, pH 8, rat, 0.01 mg/kg peptide in PBS pH 8.0
[11] = pH 8, rat, Intraduodenal, 1 mg/kg peptide, 0 mg/kg sodium caprate, 0.5 mg/mL in PBS pH 8.0
[12] = pH 8.5, rat, Intraduodenal, 1 mg/kg peptide + 50 mg/kg sodium caprate, PBS pH 8.5
[13] = pH 8.5, rat, Intraduodenal, 10 mg/kg peptide + 50 mg/kg sodium caprate, PBS pH 8.5
[14] = sc, 0.118 mg/kg, Subcutaneous, 0.118 mg/kg peptide in 0.1% BSA-PBS

bioavailability [1, 3]: 1.14%
bioavailability [1, 4]: 3.95%
bioavailability [1, 5]: 0.19%
F ([1]; IV, 0.01 mg/kg, 0.1 mg/mL peptide in PBS pH 8.0): 100%
F ([1]; SC, 0.01 mg/kg, 0.1 mg/mL peptide in PBS pH 8.0): 105.84%
AUC(0-t) [1, 6]: 1650 ng·h/mL
Cmax [1, 6]: 140 ng/mL
Tmax [1, 6]: 0.5 h
AUC(0-t) [1, 3]: 1390 ng·h/mL
Cmax [1, 3]: 60.7 ng/mL
Tmax [1, 3]: 0.5 h
AUC(0-t) [1, 4]: 4840 ng·h/mL
Cmax [1, 4]: 386 ng/mL
AUC(0-t) [1, 5]: 228 ng·h/mL
Cmax [1, 5]: 7.1 ng/mL
Tmax [1, 5]: 4 h
AUC(0-t) [1, 7]: 1750 ng·h/mL
Cmax [1, 7]: 45.1 ng/mL
improvement in permeation ([2]; ID, 1 mg/kg peptide, 50 mg/kg sodium caprate (to 0.15%)): ~5 fold
F ([2]; Intraduodenal, 1 mg/kg peptide + 50 mg/kg sodium caprate, PBS pH 8.5): 0.15%
F [2, 8]: 0.035%
F ([2]; Intraduodenal, 10 mg/kg peptide + 50 mg/kg sodium caprate, PBS pH 8.5): 0.29%
F ([2]; Intraduodenal, 50 mg/kg peptide + 50 mg/kg sodium caprate, PBS pH 8.5): 0.71%
F ([2]; Intravenous, 0.01 mg/kg peptide in PBS pH 8.0): 100%
AUC [2, 9]: 46000 ng·h/mL
Cmax [2, 9]: 6300 ng/mL
Tmax [2, 9]: 0.44 h
half-life ([2]; 50 mg/kg, pH 8.5, rat, Intraduodenal, 50 mg/kg peptide + 50 mg/kg sodium caprate, PBS pH 8.5, read-out: T ½ (converted)): 8.3 h
AUC [2, 10]: 1300 ng·h/mL
Cmax [2, 10]: 210 ng/mL
Tmax [2, 10]: 0.12 h
half-life ([2]; iv, 0.01 mg/kg, pH 8, rat, Intravenous, 0.01 mg/kg peptide in PBS pH 8.0, read-out: T ½ (converted)): 10 h
AUC [2, 11]: 45 ng·h/mL
Cmax [2, 11]: 5.1 ng/mL
Tmax [2, 11]: 2.3 h
half-life ([2]; pH 8, rat, Intraduodenal, 1 mg/kg peptide, 0 mg/kg sodium caprate, 0.5 mg/mL in PBS pH 8.0, read-out: T ½ (converted)): 8.8 h
AUC [2, 12]: 200 ng·h/mL
Cmax [2, 12]: 34 ng/mL
Tmax [2, 12]: 0.38 h
half-life ([2]; pH 8.5, rat, Intraduodenal, 1 mg/kg peptide + 50 mg/kg sodium caprate, PBS pH 8.5, read-out: T ½ (converted)): 9.3 h
AUC [2, 13]: 3800 ng·h/mL
Cmax [2, 13]: 470 ng/mL
Tmax [2, 13]: 0.44 h
half-life ([2]; pH 8.5, rat, Intraduodenal, 10 mg/kg peptide + 50 mg/kg sodium caprate, PBS pH 8.5, read-out: T ½ (converted)): 10 h
AUC [2, 14]: 11000 ng·h/mL
Cmax [2, 14]: 460 ng/mL
Tmax [2, 14]: 9 h
half-life ([2]; sc, 0.118 mg/kg, Subcutaneous, 0.118 mg/kg peptide in 0.1% BSA-PBS, read-out: T ½ (converted)): 11 h
increase of bioavailability ([2]; intraduodenal, 0.71% with 50 mg/kg sodium caprate vs 0.035% without formulation intervention): ~20 fold
bioavailability [2, 8]: 0.035%
bioavailability ([2]; sc, Subcutaneous, 0.118 mg/kg peptide in 0.1% BSA-PBS): 71%
Structure (SMILES): CC[C@H](C)[C@H](NC(=O)C(C)(Cc1ccccc1)NC(=O)[C@H](CCC(=O)O)NC(=O)[C@H](CCCCNC(=O)COCCOCCNC(=O)COCCOCCNC(=O)CC[C@H](NC(=O)CCCCCCCCCCCCCCCCC(=O)O)C(=O)O)NC(=O)[C@H](C)NC(=O)[C@H](C)NC(=O)[C@H](CCC(=O)O)NC(=O)CNC(=O)[C@H](CCC(=O)O)NC(=O)[C@H](CC(C)C)NC(=O)C(C)(Cc1ccccc1)NC(=O)[C@H](CO)NC(=O)C(C)(CO)NC(=O)[C@@H](NC(=O)[C@H](CC(=O)O)NC(=O)[C@H](CO)NC(=O)[C@@H](NC(=O)C(C)(Cc1ccccc1)NC(=O)[C@H](CO)NC(=O)CNC(=O)[C@H](CCC(=O)O)NC(=O)C(C)(C)NC(=O)[C@@H](N)Cc1c[nH]cn1)[C@@H](C)O)C(C)C)C(=O)N[C@@H](C)C(=O)NC(C)(Cc1ccccc1)C(=O)N[C@H](C(=O)N[C@H](C(=O)NC(C)(CCCCN)C(=O)NCC(=O)NCC(N)=O)C(C)C)C(C)C (stereo partly drawn) [SEQ ID NO: 3, Free-H-[AIB]-EGS-[αMePhe]-TSDV-[αMeSer]-S-[αMePhe]-LEGEAAK[(PEG2)2-γE-Stearate]-E-[αMePhe]-IA-[αMePhe]-VV-[αMeLys]-GG-amide]

Source: patent US11173124B2, “Oral delivery of GLP-1 peptide analogs” (MEDIMMUNE LIMITED, priority 2017, dated 2021)
